Data as given in publication PMC9501525, “Conjugation of a Cationic Cell-Penetrating Peptide with a Novel Kunitzin-like Trypsin Inhibitor: New Insights for Enhancement of Peptide Bioactivities” (Pharmaceutics, 2022).
Peptide text beside a SMILES is read from it.

Legend:
[1] = system: K. pneumoniae (ATCC 43816); format: cell-based, Klebsiella pneumoniae; conditions: for MIC: MHB, 5 × 10^5 CFU/mL, overnight; for MBC: clear wells spotted onto MHA
Procedure: (§1) The antimicrobial efficacy screening of the purified peptides was performed by MIC/MBC experiments on the following six different bacteria and an opportunistic pathogenic yeast: E. coli (ATCC 8739), Klebsiella pneumoniae (K. pneumoniae) (ATCC 43816), Pseudomonas aeruginosa (P. aeruginosa) (ATCC 9027), Staphylococcus aureus (S. aureus) (ATCC 6538), methicillin-resistant Staphylococcus aureus (MRSA) (NCTC 12493), Enterococcus faecium (E. faecium) (NCTC 12697), and Candida albicans (C. albicans) (ATCC 10231). First, frozen beads of respective cultures were inoculated into Mueller Hinton broth (MHB) medium and incubated overnight at 37 °C. Next, 500 µL of respective suspensions were added to the fresh MHB medium for incubation, and then sub-cultured until reaching the log growth phase, which was determined by measuring the absorbance of cultures at a wavelength of 550 nm. Then, the subcultures were diluted to 5 × 10^5 CFU/mL and 99 µL of suspension was removed and mixed with 1 µL of peptide solution at different concentrations (double-dilution of 12,800 to 100 µM) in a 96-well plate. The blank control, vehicle control, growth control, and the positive control groups were prepared according to the conditions mentioned previously. The peptide solutions were added to the plate and mixed with the diluted microbial suspensions. After overnight incubation, the absorbance at 550 nm of each well was measured with a Synergy HT plate reader (Biotech, Minneapolis, MN, USA). Subsequently, the samples in each clear well were spotted onto Mueller Hinton agar (MHA) plates for the MBC assays of the tested peptides.

[2] = system: P. aeruginosa (ATCC 9027); format: cell-based, Pseudomonas aeruginosa; conditions: for MIC: MHB, 5 × 10^5 CFU/mL, overnight; for MBC: clear wells spotted onto MHA
Procedure: as §1

trypsin = molecular target: T1, trypsin (Bos taurus, UniProt P00760); assay: Trypsin inhibition determination (fluorogenic substrate, Morrison Ki); format: biochemical; conditions: Morrison equation; substrate Phe-Pro-Arg-AMC in PBS; Km = 67.38 μM, [S] = 42.86 μM, Et = 0.0020 μM; peptide 0.1–100 µM; nine replications in three experiments; N.I. = no inhibitory effect
T1 construct: gene PRSS1
T1 sequence (P00760 24-246): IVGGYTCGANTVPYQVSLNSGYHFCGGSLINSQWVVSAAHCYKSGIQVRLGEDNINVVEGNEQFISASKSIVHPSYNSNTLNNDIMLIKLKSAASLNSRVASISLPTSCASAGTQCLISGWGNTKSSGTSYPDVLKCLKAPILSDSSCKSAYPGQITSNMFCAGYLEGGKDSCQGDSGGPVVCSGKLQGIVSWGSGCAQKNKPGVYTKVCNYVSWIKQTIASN
Procedure: Phe-Pro-Arg-AMC (Bachem, Merseyside, UK) and succinyl-Ala-Ala-Pro-Phe-AMC (Bachem, Merseyside, UK) were used as substrates for trypsin and chymotrypsin inhibition determinations, respectively. Serial peptide dilutions (0.1–100 µM in phosphate buffered saline (PBS)) were incubated with 180 µL of substrate solution (50 µM in PBS) in a black 96-well plate under dark conditions for 10 min. Immediately prior to measurement, 10 µL of trypsin/chymotrypsin working solution (0.1 µM in PBS) was added to each well (final volume of 210 µL) in the plate. Subsequently, the fluorescence intensity was measured with the FLUO star OPTIMA plate reader (BMG Labtech, Ortenberg, Germany). The whole measurement process lasted for 30 min and was carried out at an emission wavelength of 460 nm and an excitation wavelength of 395 nm. The inhibition curves of trypsin and chymotrypsin were analyzed by non-linear regression using the Morrison equation in Prism 9 (Trypsin Km = 67.38 μM; Chymotrypsin Km = 17.15 μM; [S] = 42.86 μM; Et = 0.0020 μM).

C. albicans (ATCC 10231) = format: cell-based, Candida albicans; conditions: for MIC: MHB, 5 × 10^5 CFU/mL, overnight; for MBC: clear wells spotted onto MHA
Procedure: as §1

E. faecalis (NCTC 12697) = format: cell-based; conditions: for MIC: MHB, 5 × 10^5 CFU/mL, overnight; for MBC: clear wells spotted onto MHA
Procedure: as §1

[3] = system: HMEC-1 human microvascular endothelial cells; assay: MTT cell antiproliferation assay; format: cell-based; conditions: HMEC-1 normal cells, 24 h of treatment, 10^−9–10^−4 M
Procedure: (§2) The antiproliferative activities of the synthesized peptides were assessed on six human cancer cell lines (PC-3, H157, H460, H838, MCF-7, U251MG) and two human normal cell lines (HMEC-1 and MRC-5) using the MTT cell viability assay. Human lung cancer cells (H838, H157, and H460) and human prostate cancer cells (PC-3) were cultured in complete growth medium (CGM) (Roswell Park Memorial Institute (RPMI) 1640 Medium (Gibco, Paisley, UK): Fetal bovine serum (FBS) (Gibco, Campinas, Brazil): Penicillin-streptomycin solution (PS) (Gibco, Grand Island, NY, USA) 89/10/1 v/v/v). Human glioblastoma astrocytoma (U251MG) and human breast cancer cell (MCF-7) were cultured in complete growth medium (Dulbecco’s Modified Eagle medium (DMEM) (Gibco, Paisley, UK): FBS: PS 89/10/1 v/v/v). Human microvascular endothelial cells (HMEC-1) and human pulmonary fibroblast cells (MRC-5) were cultured in MCDB131 medium (supplemented with 10% FBS, 1% PS, 10 ng/mL epidermal growth factor, 1 µg/mL hydrocortisone, and 10 mM glutamine) and Eagle’s Minimal Essential Medium (EMEM) (supplemented with 10% FBS and 1% PS), respectively. Cell suspension, containing 8 × 10^3 cells per 100 µL, was first added to 96-well plates for overnight incubation. Then, the adherent cells in the 96-well plates were subject to cell starvation using the serum free medium treatment for at least 4 h to ensure that the cells were all in the same growth cycle. The peptide solutions, with final concentrations of 10^−9–10^−4 M, were prepared with serum free medium and added onto the plate. In addition, Triton X-100 (0.1%) (Sigma-Aldrich, St. Louis, MO, USA) was used as a positive control. After 24 h of administration, the MTT solution was added to the plate and incubated for 2 h. Then, the supernatant was discarded and DMSO was added to dissolve the purple formazan crystals. The absorbance was measured in all wells using the Synergy HT plate reader at a wavelength of 570 nm.

[4] = system: PC-3 human prostate cancer cells; assay: MTT cell antiproliferation assay; format: cell-based; conditions: PC-3, MTT, 24 h of treatment, serum free medium, 10^−9–10^−4 M
Procedure: as §2

[5] = system: H460 human lung cancer cells; assay: MTT cell antiproliferation assay; format: cell-based; conditions: 24 h of treatment, serum free medium, 10^−9–10^−4 M
Procedure: as §2

[6] = system: H838 human lung cancer cells; assay: MTT cell antiproliferation assay; format: cell-based; conditions: 24 h of treatment, serum free medium, 10^−9–10^−4 M
Procedure: as §2

[7] = system: MRC-5 human pulmonary fibroblast cells; assay: MTT cell antiproliferation assay; format: cell-based; conditions: MRC-5 normal cells, 24 h of treatment, 10^−9–10^−4 M
Procedure: as §2

| Compound | MIC [1] | MBC [1] | MIC [2] | MBC [2] | Trypsin Ki (trypsin) | MIC (C. albicans (ATCC 10231)) | MBC (C. albicans (ATCC 10231)) | MIC (E. faecalis (NCTC 12697)) | MBC (E. faecalis (NCTC 12697)) | IC50 [3] | IC50 [4] | IC50 [5] | IC50 [6] | IC50 [7] | Ki (trypsin) |
| --- | --- | --- | --- | --- | --- | --- | --- | --- | --- | --- | --- | --- | --- | --- | --- |
| CC(C)C[C@H](NC(=O)[C@H](CCCCN)NC(=O)[C@H](C)NC(=O)[C@H](C)N)C(=O)N1CCC[C@H]1C(=O)N[C@@H](Cc1ccccc1)C(=O)N[C@@H](CCCNC(=N)N)C(=O)N[C@H]1CSSC[C@@H](C(=O)O)NC(=O)[C@H](Cc2ccccc2)NC(=O)[C@H](C)NC(=O)[C@H](C)NC(=O)[C@H](Cc2ccccc2)NC1=O [F9-KOV2] (HELM PEPTIDE1{A.A.K.L.P.F.R.C.F.A.A.F.C}$PEPTIDE1,PEPTIDE1,8:R3-13:R3$$$V2.0) | >128 µM | >128 µM | >128 µM | >128 µM | N.I. | >128 µM | >128 µM | >128 µM | >128 µM |  |  |  |  |  |  |
| CC(C)C[C@H](NC(=O)[C@H](CCCCN)NC(=O)[C@H](C)NC(=O)[C@H](C)NC(=O)CNC(=O)CNC(=O)[C@H](CCCNC(=N)N)NC(=O)[C@H](CCCNC(=N)N)NC(=O)[C@H](CCCNC(=N)N)NC(=O)[C@H](CCC(N)=O)NC(=O)[C@H](CCCNC(=N)N)NC(=O)[C@H](CCCNC(=N)N)NC(=O)[C@H](CCCCN)NC(=O)[C@H](CCCCN)NC(=O)[C@@H](N)CCCNC(=N)N)C(=O)N1CCC[C@H]1C(=O)N[C@@H](Cc1ccccc1)C(=O)N[C@@H](CCCNC(=N)N)C(=O)N[C@H]1CSSC[C@@H](C(=O)O)NC(=O)[C@H](Cc2ccccc2)NC(=O)[C@H](C)NC(=O)[C@H](C)NC(=O)[C@H](CCCCN)NC1=O [TAT-KOV2] (HELM PEPTIDE1{R.K.K.R.R.Q.R.R.R.G.G.A.A.K.L.P.F.R.C.K.A.A.F.C}$PEPTIDE1,PEPTIDE1,19:R3-24:R3$$$V2.0) | >128 µM | >128 µM | >128 µM | >128 µM |  | >128 µM | >128 µM | 128 µM | > 128 µM | 166 µM | 96.8 µM | 49.2 µM | 92.4 µM | 64.9 µM | 10.1 µM |
| CC(C)C[C@H](NC(=O)[C@H](CCCCN)NC(=O)[C@H](C)NC(=O)[C@H](C)N)C(=O)N1CCC[C@H]1C(=O)N[C@@H](Cc1ccccc1)C(=O)N[C@@H](CCCNC(=N)N)C(=O)N[C@H]1CSSC[C@@H](C(=O)O)NC(=O)[C@H](Cc2ccccc2)NC(=O)[C@H](C)NC(=O)[C@H](C)NC(=O)[C@H](CCCCN)NC1=O [Kunitzin-OV2] (HELM PEPTIDE1{A.A.K.L.P.F.R.C.K.A.A.F.C}$PEPTIDE1,PEPTIDE1,8:R3-13:R3$$$V2.0) | >128 µM | >128 µM | >128 µM | >128 µM |  | >128 µM | >128 µM | >128 µM | >128 µM |  |  |  |  |  | 9.82 µM |
| CC(C)C[C@H](NC(=O)[C@H](CCCCN)NC(=O)[C@H](C)NC(=O)[C@H](C)NC(=O)CNC(=O)CNC(=O)[C@H](CCCNC(=N)N)NC(=O)[C@H](CCCNC(=N)N)NC(=O)[C@H](CCCNC(=N)N)NC(=O)[C@H](CCC(N)=O)NC(=O)[C@H](CCCNC(=N)N)NC(=O)[C@H](CCCNC(=N)N)NC(=O)[C@H](CCCCN)NC(=O)[C@H](CCCCN)NC(=O)[C@@H](N)CCCNC(=N)N)C(=O)N1CCC[C@H]1C(=O)N[C@@H](Cc1ccccc1)C(=O)N[C@@H](CCCNC(=N)N)C(=O)N[C@H]1CSSC[C@@H](C(=O)O)NC(=O)[C@H](Cc2ccccc2)NC(=O)[C@H](C)NC(=O)[C@H](C)NC(=O)[C@H](Cc2ccccc2)NC1=O [TAT-F9-KOV2] (HELM PEPTIDE1{R.K.K.R.R.Q.R.R.R.G.G.A.A.K.L.P.F.R.C.F.A.A.F.C}$PEPTIDE1,PEPTIDE1,19:R3-24:R3$$$V2.0) | >128 µM | >128 µM | >128 µM | >128 µM | N.I. | >128 µM | >128 µM | >128 µM | >128 µM | 98.1 µM | 44.3 µM | 5.1 µM | 9.9 µM | 43.6 µM |  |
